Data as given in article PMC7767166, “Imidazole and Imidazolium Antibacterial Drugs Derived from Amino Acids” (Pharmaceuticals, 2020).
Like-named read-outs stand apart in the source and are kept apart here.

Columns and labels:
Escherichia coli DH5α [1] = test: Bacterial growth inhibition assay (microdilution, OD 560 nm), MIC; format: cell-based; details: read-out: E. coli MIC
Procedure: (§1) The in vitro antibacterial activities of the synthesized compounds were examined against E. coli and B. subtilis. Bacteria were incubated in culture media with varying concentrations of the examined compound and the antibacterial properties were determined by observation of the optical density at 560 nm (bacteriostatic activity) and by the Resazurin cell viability assay (bactericidal activity). The corresponding minimal bactericidal concentration (MBC) and minimum inhibitory concentration (MIC) values that were obtained are summarized in Table 1 (please refer to Table S1 for MIC and MBC values in μM). Two bacterial strains were used in the antibacterial assays: Escherichia coli DH5α as a Gram-negative model and Bacillus subtilis 1904-E as a Gram-positive model. Both bacterial strains were donated to our laboratory and can be provided on request by contacting the corresponding authors. Both bacterial strains were incubated at 37 °C and the pre-inoculum incubation time was of 24 h. Liquid Luria-Bertani (LB) medium was used for E. coli DH5α and nutrient broth (NB) for B. subtilis. The bacteria cell bank suspensions were thawed and inoculated in the appropriate liquid broth for 24 h at 37 °C with mild agitation. A dilution from these culture solutions was used for the following tests, corresponding to an inoculum of 1 × 10^7 CFU/mL. Stock solutions of all the tested compounds were prepared in DMSO at a concentration of 100 mg/mL, aliquoted, and stored at −20 °C. (A) Bacterial growth inhibition assay: Conditions here described are for testing 6 different concentrations of the compounds, with triplicates of each condition. Therefore, 4 compounds were tested per plate. An adapted version of the microdilution method was used. Firstly, the imidazole derivatives were dissolved in the corresponding broth at 2× the highest tested concentration. Then, 100 μL of the 2× solutions were added to the first (A) and second (B) row wells of a 96-well plate. In addition, 100 μL of liquid medium had been previously added to rows B to F. Subsequent dilutions at 1:2 are prepared in rows B to F, by withdrawal of 100 μL from the previous row (more concentrated) to the next row (half diluted), mixing well. Then, 100 μL were discarded from the last row (F). By now, there are 100 μL in each well, and 100 μL of bacterial suspension at 10^7 CFU/mL were added to each well. Then, the 96-well plates were incubated for 24 h at 37 °C under mild agitation. Bacterial growth was controlled both by visual observation of the turbidity in each well and by measuring the optical density (OD) at 560 nm at time 0 h and 24 h. Results are recorded as the lowest concentration of antimicrobial agent that inhibits visible growth of the bacteria, and were compared with the OD variation of a control culture containing E. coli or B. subtilis (+ control) and of solution of the tested compounds without bacteria (- control).

Bacillus subtilis 1904-E [2] = test: as above; format: cell-based; details: read-out: B. subtilis MIC
Procedure: as §1

Escherichia coli DH5α [3] = test: Bacterial cell viability assay (Resazurin), MBC; format: cell-based; details: read-out: E. coli MBC
Procedure: (§2) The in vitro antibacterial activities of the synthesized compounds were examined against E. coli and B. subtilis. Bacteria were incubated in culture media with varying concentrations of the examined compound and the antibacterial properties were determined by observation of the optical density at 560 nm (bacteriostatic activity) and by the Resazurin cell viability assay (bactericidal activity). The corresponding minimal bactericidal concentration (MBC) and minimum inhibitory concentration (MIC) values that were obtained are summarized in Table 1 (please refer to Table S1 for MIC and MBC values in μM).
(§3) Two bacterial strains were used in the antibacterial assays: Escherichia coli DH5α as a Gram-negative model and Bacillus subtilis 1904-E as a Gram-positive model. Both bacterial strains were donated to our laboratory and can be provided on request by contacting the corresponding authors. Both bacterial strains were incubated at 37 °C and the pre-inoculum incubation time was of 24 h. Liquid Luria-Bertani (LB) medium was used for E. coli DH5α and nutrient broth (NB) for B. subtilis.
(§4) The bacteria cell bank suspensions were thawed and inoculated in the appropriate liquid broth for 24 h at 37 °C with mild agitation. A dilution from these culture solutions was used for the following tests, corresponding to an inoculum of 1 × 10^7 CFU/mL. Stock solutions of all the tested compounds were prepared in DMSO at a concentration of 100 mg/mL, aliquoted, and stored at −20 °C.
(§5) (B) Bacterial cell viability assay: Cell viability was analyzed using a Resazurin (7-Hydroxy-3H-phenoxazin-3-one 10-oxide) assay in a 96-well plate. Once the bacterial cultures of growth inhibition assay had been grown for a total of 24 h, 25 μL of a 0.1 mg/mL resazurin (prepared in LB or NB medium) were added to each well and incubated in the dark at 37 °C for 1 h under stirring. Resazurin has a blue color at the testing pH and turns pink when reduced by the viable bacteria to resorufin. Therefore, pink wells indicate metabolizing bacteria, while blue wells are indicative of bacteria that have lost their ability to convert resazurin to resorufin. Different controls were made in order to corroborate the MBC value obtained by the resazurin assay. The change of color was confirmed at 1, 4, and 24 h after its addition. The viability of bacteria was verified (either confirmed or rejected) by the colony plate-counting method, by seeding 10 μL from the cell culture onto tryptone soy agar plates and observing the presence or absence of bacterial growth after 24 h at 37 °C.

Bacillus subtilis 1904-E [4] = test: Bacterial cell viability assay (Resazurin), MBC; format: cell-based; details: read-out: B. subtilis MBC
Procedure: as §2, §3, §4, §5

E. coli and B. subtilis = test: MBC to MIC ratio (bactericidal vs bacteriostatic); format: cell-based; details: from exact MBC and MIC values of Table 1
Source text: The Gram-positive cell wall is composed of a thick, multilayered peptidoglycan sheath outside of the cytoplasmic membrane, while the Gram-negative cell wall is composed of an outer membrane linked by lipoproteins to thin, mainly single-layered peptidoglycan. The peptidoglycan is located within the periplasmic space that is created between the outer and inner membranes. […] Compounds with MBC/MIC >4 are considered to be bacteriostatic. In all the cases in which we could obtain exact MBC and MIC values (Table 1, entries 2, 3, 8 and 9), their ratio was equal to or minor than four.

[5] = Solubility in media of the fluorescence studies; format: physicochemical; details: water and 1/1 water/bacterial cell culture medium
Procedure: Fluorescence studies were carried out using MilliQ® water and 1/1 MilliQ® water/bacterial cell culture medium, because with the pure cell culture medium, a strong broad fluorescence emission band was observed precluding an accurate analysis. […] The corresponding CACs obtained in water and in the 1/1 mixture of water/bacterial cell culture medium by fluorescence are shown in Table 2.

[6] = 24 h, 37 °C, LB medium, minimum of three experiments
[7] = mode of at least three experiments
[8] = 24 h, 37 °C, nutrient broth, minimum of three experiments
[9] = Resazurin after 24 h growth, LB medium, minimum of three experiments
[10] = 24 h, Resazurin after 24 h growth, nutrient broth, minimum of three experiments

Compound | MIC (Escherichia coli DH5α [1]; [6]) | MIC (Escherichia coli DH5α [1]; [7]) | MIC (Bacillus subtilis 1904-E [2]; [8]) | MIC (Bacillus subtilis 1904-E [2]; [7]) | melting point | solubility [5] | MIC (Bacillus subtilis 1904-E [2]; 24 h, mode of at least three experiments) | MBC (Escherichia coli DH5α [3]; [9]) | MBC (Escherichia coli DH5α [3]; [7]) | MBC (Bacillus subtilis 1904-E [4]; [7]) | bactericidal or bacteriostatic (MBC to MIC ratio equal to or less than four = bactericidal) (E. coli and B. subtilis) | MBC (Bacillus subtilis 1904-E [4]; [10])
CCCCCCCCCCCCNC(=O)[C@H](C(C)C)n1cc[n+](Cc2cccc(C[n+]3ccn([C@@H](C(=O)NCCCCCCCCCCCC)C(C)C)c3)c2)c1 [Compound 1c] | 256 µg/mL | 269 µM | 16 µg/mL | 19 µM |  |  |  | 256 µg/mL | 269 µM | 34 µM | true bactericidal activity | 32 µg/mL
CCCCCCCCCCCCNC(=O)[C@H](C(C)C)n1ccnc1 [Compound 1a] | > 2000 µg/mL | > 6000 µM | 16 µg/mL | 48 µM |  |  |  | > 2000 µg/mL | > 6000 µM | 48 µM |  | ≤ 16 µg/mL
CCCCCCCCCCCCNC(=O)[C@H](C(C)C)n1cc[n+](Cc2ccccc2)c1 [Compound 1b] | 128 µg/mL | 288 µM | 4 µg/mL | 9 µM |  |  |  | 256 µg/mL | 581 µM | 18 µM | true bactericidal activity | ≤ 16 µg/mL

The next lines start with results.

MIC (Escherichia coli DH5α [1]; [6]) | MIC (Escherichia coli DH5α [1]; [7]) | MIC (Bacillus subtilis 1904-E [2]; [8]) | MIC (Bacillus subtilis 1904-E [2]; [7]) | melting point | solubility [5] | MIC (Bacillus subtilis 1904-E [2]; 24 h, mode of at least three experiments) | Compound | MBC (Escherichia coli DH5α [3]; [9]) | MBC (Escherichia coli DH5α [3]; [7]) | MBC (Bacillus subtilis 1904-E [4]; [7]) | bactericidal or bacteriostatic (MBC to MIC ratio equal to or less than four = bactericidal) (E. coli and B. subtilis) | MBC (Bacillus subtilis 1904-E [4]; [10])
32 µg/mL | 57 µM | 4 µg/mL | 7 µM | 16 °C |  |  | CCCCCCCCCCCCNC(=O)[C@H](Cc1ccccc1)n1cc[n+](Cc2ccccc2)c1 [Compound 3b] | 128 µg/mL | 229 µM | 7 µM | true bactericidal activity | 
2000 µg/mL | 1990 µM | 64 µg/mL | 62 µM | 60 °C | solubility problems |  | CCCCCCCCCCCCNC(=O)[C@@H](Cc1ccccc1)n1cc[n+](Cc2cccc(C[n+]3ccn([C@@H](Cc4ccccc4)C(=O)NCCCCCCCCCCCC)c3)c2)c1 [Compound 3c] | 2000 µg/mL | 1990 µM | 62 µM | true bactericidal activity | 64 µg/mL
> 2000 µg/mL | > 9000 µM | > 2000 µg/mL | > 9000 µM |  |  |  | CCCCNC(=O)[C@H](C(C)C)n1ccnc1 [Compound 2a] | > 2000 µg/mL | > 9000 µM | > 9000 µM |  | > 2000 µg/mL
1000 µg/mL | 1440 µM | 128 µg/mL | 180 µM | 85 °C |  |  | CCCCNC(=O)[C@H](C(C)C)n1cc[n+](Cc2cccc(C[n+]3ccn([C@@H](C(=O)NCCCC)C(C)C)c3)c2)c1 [Compound 2c] | > 2000 µg/mL | > 2900 µM | 361 µM |  | 256 µg/mL
1000 µg/mL | 2660 µM | 16 µg/mL | 42 µM | 56.1 °C |  |  | CCCCCCCCCCCCNC(=O)[C@H](Cc1ccccc1)n1ccnc1 [Compound 3a] | > 2000 µg/mL | > 5000 µM | 42 µM |  | ≤ 16 µg/mL
> 2000 µg/mL | > 5000 µM | > 1000 µg/mL |  | 33 °C |  | 2590 µM | CCCCNC(=O)[C@H](C(C)C)n1cc[n+](Cc2ccccc2)c1 [Compound 2b] | > 2000 µg/mL | > 5000 µM | 2590 µM |  | > 1000 µg/mL
